Laboratory results taken from ChEMBL document CHEMBL2440076, “New triarylpyrazoles as broad-spectrum anticancer agents: design, synthesis, and biological evaluation” (Eur J Med Chem, 2013).
pIC50: −log10 of the molar value.

Tests used:
[1] = test system: OVCAR-8; experiment: Growth inhibition of human OVCAR8 cells after 48 hrs by sulforhodamine B assay; assay type: functional; settings: OVCAR-8, 48 h
[2] = test system: IGROV-1; experiment: Growth inhibition of human IGROV1 cells after 48 hrs by sulforhodamine B assay; assay type: functional; settings: IGROV-1, 48 h
[3] = test system: SK-OV-3; experiment: Growth inhibition of human SKOV3 cells after 48 hrs by sulforhodamine B assay; assay type: functional; settings: SK-OV-3, 48 h
[4] = test system: SK-MEL-28; experiment: Growth inhibition of human SK-MEL-28 cells after 48 hrs by sulforhodamine B assay; assay type: functional; settings: SK-MEL-28, 48 h
[5] = test system: HT-29; experiment: Growth inhibition of human HT-29 cells assessed as cell growth at 10 uM after 48 hrs by sulforhodamine B assay; assay type: functional; settings: HT-29, 48 h, read-out: Activity
[6] = Growth inhibition of human Hs 578T cells assessed as cell growth at 10 uM after 48 hrs by sulforhodamine B assay; assay type: functional; settings: read-out: Activity
[7] = test system: UACC-62; experiment: Growth inhibition of human UACC62 cells after 48 hrs by sulforhodamine B assay; assay type: functional; settings: UACC-62, 48 h
[8] = test system: K562; experiment: Growth inhibition of human K562 cells assessed as cell growth at 10 uM after 48 hrs by sulforhodamine B assay; assay type: functional; settings: K562, 48 h, read-out: Activity
[9] = test system: U-251; experiment: Growth inhibition of human U251 cells after 48 hrs by sulforhodamine B assay; assay type: functional; settings: U-251, 48 h
[10] = test system: DU-145; experiment: Growth inhibition of human DU145 cells assessed as cell growth at 10 uM after 48 hrs by sulforhodamine B assay; assay type: functional; settings: DU-145, 48 h, read-out: Activity
[11] = test system: KM12; experiment: Growth inhibition of human KM12 cells assessed as cell growth at 10 uM after 48 hrs by sulforhodamine B assay; assay type: functional; settings: KM12, 48 h, read-out: Activity
[12] = test system: COLO 205; experiment: Growth inhibition of human COLO205 cells assessed as cell growth at 10 uM after 48 hrs by sulforhodamine B assay; assay type: functional; settings: COLO 205, 48 h, read-out: Activity
[13] = test system: HOP-62; experiment: Growth inhibition of human HOP62 cells after 48 hrs by sulforhodamine B assay; assay type: functional; settings: HOP-62, 48 h
[14] = test system: UACC-257; experiment: Growth inhibition of human UACC257 cells assessed as cell growth at 10 uM after 48 hrs by sulforhodamine B assay; assay type: functional; settings: UACC-257, 48 h, read-out: Activity
[15] = test system: SN12C; experiment: Growth inhibition of human SN12C cells after 48 hrs by sulforhodamine B assay; assay type: functional
[16] = test system: MDA-MB-468; experiment: Growth inhibition of human MDA-MB-468 cells assessed as cell growth at 10 uM after 48 hrs by sulforhodamine B assay; assay type: functional; settings: MDA-MB-468, 48 h, read-out: Activity
[17] = test system: MOLT-4; experiment: Growth inhibition of human MOLT4 cells assessed as cell growth at 10 uM after 48 hrs by sulforhodamine B assay; assay type: functional; settings: MOLT-4, 48 h, read-out: Activity
[18] = test system: 786-0; experiment: Growth inhibition of human 786-0 cells after 48 hrs by sulforhodamine B assay; assay type: functional; settings: 786-0, 48 h
[19] = test system: BT-549; experiment: Growth inhibition of human BT549 cells assessed as cell growth at 10 uM after 48 hrs by sulforhodamine B assay; assay type: functional; settings: BT-549, 48 h, read-out: Activity
[20] = test system: HCT-116; experiment: Growth inhibition of human HCT116 cells assessed as cell growth at 10 uM after 48 hrs by sulforhodamine B assay; assay type: functional; settings: HCT-116, 48 h, read-out: Activity
[21] = test system: SF-268; experiment: Growth inhibition of human SF268 cells after 48 hrs by sulforhodamine B assay; assay type: functional; settings: SF-268, 48 h
[22] = test system: ACHN; experiment: Growth inhibition of human ACHN cells after 48 hrs by sulforhodamine B assay; assay type: functional
[23] = test system: NCI-H522; experiment: Growth inhibition of human NCI-H522 cells after 48 hrs by sulforhodamine B assay; assay type: functional; settings: NCI-H522, 48 h
[24] = test system: SR; experiment: Growth inhibition of human SR cells after 48 hrs by sulforhodamine B assay; assay type: functional
[25] = test system: MDA-MB-231; experiment: Growth inhibition of human MDA-MB-231 cells assessed as cell growth at 10 uM after 48 hrs by sulforhodamine B assay; assay type: functional; settings: MDA-MB-231, 48 h, read-out: Activity
[26] = test system: HL-60(TB); experiment: Growth inhibition of human HL-60(TB) cells after 48 hrs by sulforhodamine B assay; assay type: functional; settings: HL-60, 48 h
[27] = test system: M14; experiment: Growth inhibition of human M14 cells after 48 hrs by sulforhodamine B assay; assay type: functional; settings: M14, 48 h
[28] = test system: SF-295; experiment: Growth inhibition of human SF295 cells after 48 hrs by sulforhodamine B assay; assay type: functional, cell-based; settings: SF-295, 48 h
[29] = test system: NCI-H226; experiment: Growth inhibition of human NCI-H226 cells assessed as cell growth at 10 uM after 48 hrs by sulforhodamine B assay; assay type: functional; settings: NCI-H226, 48 h, read-out: Activity
[30] = test system: SK-MEL-2; experiment: Growth inhibition of human SK-MEL-2 cells after 48 hrs by sulforhodamine B assay; assay type: functional; settings: SK-MEL-2, 48 h
[31] = test system: MOLT-4; experiment: Growth inhibition of human MOLT4 cells after 48 hrs by sulforhodamine B assay; assay type: functional; settings: MOLT-4, 48 h
[32] = test system: NCI-H23; experiment: Growth inhibition of human NCI-H23 cells assessed as cell growth at 10 uM after 48 hrs by sulforhodamine B assay; assay type: functional; settings: NCI-H23, 48 h, read-out: Activity
[33] = test system: TK-10; experiment: Growth inhibition of human TK10 cells assessed as cell growth at 10 uM after 48 hrs by sulforhodamine B assay; assay type: functional; settings: TK-10, 48 h, read-out: Activity
[34] = test system: MDA-MB-435; experiment: Growth inhibition of human MDA-MB-435 cells assessed as cell growth at 10 uM after 48 hrs by sulforhodamine B assay; assay type: functional; settings: MDA-MB-435, 48 h, read-out: Activity
[35] = read-out: LC50 (the source's name)

COc1cc(-c2nn(-c3cccc(NC(=O)Nc4cc(C(F)(F)F)cc(C(F)(F)F)c4)c3)cc2-c2ccncc2)ccc1Cl
GI50 [1]: 524 nM | TGI [1]: 3980 nM | CC50 [1, 35]: > 50000 nM | GI50 [2]: 826 nM | LC50 (concentration killing 50% of cells) [2]: 23700 nM | TGI [2]: 2190 nM | GI50 [3]: 1090 nM | TGI [3]: 2570 nM | CC50 [3, 35]: 15400 nM | GI50 [4]: 851 nM | LC50 [4]: 3380 nM | TGI [4]: 1700 nM | growth at 10 µM [5]: -41.2% | growth at 10 µM [6]: -25.8% | GI50 [7]: 661 nM | LC50 (50% lethal concentration) [7]: 3780 nM | TGI [7]: 1580 nM | growth at 10 µM [8]: -10.7% | GI50 [9]: 590 nM | LC50 (concentration killing 50% of cells) [9]: 3180 nM | TGI [9]: 1370 nM | growth at 10 µM [10]: 3.89% | growth at 10 µM [11]: -14.8% | growth at 10 µM [12]: -98.7% | GI50 [13]: 855 nM | TGI [13]: 1590 nM | CC50 [13, 35]: 2950 nM | growth at 10 µM [14]: -45.1% | GI50 [15]: 932 nM | TGI [15]: 3320 nM | CC50 [15, 35]: > 50000 nM | growth at 10 µM [16]: -25.4% | growth at 10 µM [17]: -24.5% | GI50 [18]: 950 nM | TGI [18]: 2020 nM | CC50 [18, 35]: 4310 nM | growth at 10 µM [19]: -8.96% | growth at 10 µM [20]: -43.6% | GI50 [21]: 978 nM | TGI [21]: 2430 nM | CC50 [21, 35]: > 50000 nM | GI50 [22]: 491 nM | TGI [22]: 5720 nM | CC50 [22, 35]: > 50000 nM | GI50 [23]: 623 nM | LC50 (concentration killing 50% of cells) [23]: 6560 nM | TGI [23]: 1800 nM | GI50 [24]: 1080 nM | TGI [24]: 3970 nM | CC50 [24, 35]: > 50000 nM | growth at 10 µM [25]: -92% | GI50 [26]: 1180 nM | TGI [26]: > 50000 nM | CC50 [26, 35]: > 50000 nM | GI50 [27]: 808 nM | LC50 (concentration killing 50% of cells) [27]: > 50000 nM | TGI [27]: 2550 nM | GI50 [28]: 399 nM | pIC50 [28]: 6.40 | TGI [28]: 1230 nM | CC50 [28, 35]: 3310 nM | growth at 10 µM [29]: 8.68% | GI50 [30]: 1020 nM | LC50 (50% lethal concentration) [30]: 3710 nM | TGI [30]: 1950 nM | GI50 [31]: 1080 nM | TGI [31]: 4480 nM | CC50 [31, 35]: > 50000 nM | growth at 10 µM [32]: -3.3% | growth at 10 µM [33]: -26.7% | growth at 10 µM [34]: -58.3%
